Assay results taken from patent publication US6887705B1, “Tyrosine phosphorylated cleavage furrow-associated proteins (PSTPIPs)” (Genentech, Inc., priority 1997, dated 2005).

Tests used:
[1] = test system: PSTPIP tyrosine phosphorylation; assay: Tyrosine phosphorylation of endogenous PSTPIP in Baf3 cells; type: cell-based, murine
Method: Baf3 cells were lysed in 1% Triton, 50 mM HEPES. 10% glycerol and 5 mM EDTA containing 1 μg/ml aprotinin, PMSF, leupeptin and pepstatin were 1 mM Sodium Vanadate and 10 mM Iodoacetic acid. Cells were treated with 0.1 mM Pervanadate for 4 hours before lysis. Immunoprecipitations were performed in the vanadate-containing lysis buffer using 1 μg/ml anti-PSTPIP polyclonal antibody and 400 μg of lysate protein at 4° C. overnight. Western blots were performed using 1 μg/ml affinity purified anti-PSTPIP or 1:5000 dilution of commercial 4G10 anti-phosphotyrosine monoclonal (Upstate Biotech). Signal was detected by HRPO-ECL reagents (Pierce). The C221-S mutant was as previously described (Cheng et al., (1996) supra). The PTP HSCF D197-A mutant was generated using PCR. Mutagenesis primer D197A.F ([…]) (SEQ ID NO:24), corresponding to nucleotide 591, and primer D197A.R ([…]) (SEQ ID NO:25) which corresponds to the stop codon, were used in PCR to generate a fragment that could be cut with Mscl and XbaI. pRK.HA.38 WT, a plasmid which encoded the wild type enzyme under the control of the cytomegalovirus promoter (Cheng et al., (1996) supra), was digested with Clal and Mscl and the resulting 600 bp fragment was ligated with the Mscl-Xbal PCR fragment into the Clal and Xbal sites of the pRK.tkneo. […]

[2] = target: T1, interaction between PTP HSCF and PSTPIP (Mus musculus, UniProt P97814); assay: Peptide inhibition of in vitro binding of PSTPIP to GST-PTP HSCF fusion; design: species or system murine; settings: GST-PST-rich+CTH PTP HSCF precipitating in vitro translated PSTPIP, varying amounts of peptide
T1 construct: made in house; host or cells: GST fusion: E. coli DH5-alpha; PSTPIP: in vitro transcription/translation in rabbit reticulocyte lysate (Promega TnT)
T1 sequence (P97814 1-415): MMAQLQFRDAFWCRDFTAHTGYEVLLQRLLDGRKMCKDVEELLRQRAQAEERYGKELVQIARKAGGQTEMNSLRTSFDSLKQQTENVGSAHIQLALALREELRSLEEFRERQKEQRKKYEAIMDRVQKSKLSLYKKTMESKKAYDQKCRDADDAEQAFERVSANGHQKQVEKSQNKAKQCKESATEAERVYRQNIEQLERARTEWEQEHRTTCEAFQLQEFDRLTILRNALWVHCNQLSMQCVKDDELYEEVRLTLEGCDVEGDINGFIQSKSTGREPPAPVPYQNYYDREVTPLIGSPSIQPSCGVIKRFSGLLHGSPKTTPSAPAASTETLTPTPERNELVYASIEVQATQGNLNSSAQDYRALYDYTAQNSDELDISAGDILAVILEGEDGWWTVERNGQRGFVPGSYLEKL
Method: The binding was carried out according to the method of Wong and Johnson (Wong et al., J. Biol. Chem. 271(35):20981-20984 (1996)). Briefly, 1 μg of plasmid with either the PSTPIP protein or PTP HSCF under the control of the Sp6 promoter was in vitro transcribed/translated using the Promega™ TnT Rabbit Reticulocyte™ system. Samples were diluted in 50 mM HEPES, pH 7.2, 1% triton X 100, 10% glycerol, 100 mM NaCl, 5 mM EDTA and 2 μg/ml each of leupeptin, pepstatin, aprotinin, and PMSF. […] This was reacted for 1 hour at 4° C. and then the resin washed 6 times in HEPES/Triton binding buffer before SDS gel electrophoresis. The peptides were synthesized on an automated Milligen 9050 Peptide Synthesizer using standard solid phase chemistry with FMOC protected amino acids on a p-alkoxybenzyl alcohol resin. Dried peptides were re-suspended in the HEPES/Triton Binding buffer at a concentration of 10 mg/ml. Peptide inhibition was performed by adding the peptide first to the in vitro translation product and then the GST-fusion followed by the GSH-Sepharose. […]
In vitro binding analyses between various PTP HSCF and PST PIP constructs were performed as previously described (Spencer et al, (1997), supra). […] Samples were than reacted with GST fusion proteins at various concentrations, and the bound proteins were centrifuged using glutathione-sepharose beads and analyzed on SDS polyacrylamide gels. […]

Molecule | tyrosine phosphorylation of endogenous PSTPIP [1] | blocking of the PTP HSCF-PSTPIP interaction by peptide [2]
[O]=[V]([O-])([O-])[O-] [vanadate] | significantly enhanced | 
GGVLRSISVPAPPTLPMADT [PXXP-CONTROL] |  | completely unable to block the interaction
